Experimental data published in patent US10681909B2, “Herbicidal triazoles” (FMC Corporation, priority 2014, dated 2020).

What was measured:
[1] = test system: foxtail, giant; assay: Test A postemergence; assay type: in vivo, Setaria faberii; details: 0 to 100 scale (0 no effect, 100 complete control), approx. 10 d
Description: (§1) Seeds of plant species selected from barnyardgrass (Echinochloa crus-galli), crabgrass, large (large crabgrass, Digitaria sanguinalis), kochia (Kochia scoparia), ragweed (common ragweed, Ambrosia elatior), foxtail, giant (giant foxtail, Setaria faberii), morningglory (Ipomoea spp.), pigweed (Amaranthus retroflexus), velvetleaf (Abutilon theophrasti), ryegrass, Italian (Italian ryegrass, Lolium multiflorum), wheat (Triticum aestivum), and corn (Zea mays) were planted into a blend of loam soil and sand and treated preemergence with a directed soil spray using test chemicals formulated in a non-phytotoxic solvent mixture which included a surfactant. At the same time, plants selected from these crop and weed species and also blackgrass (Alopecurus myosuroides), and galium (catchweed bedstraw, Galium aparine), were planted in pots containing the same blend of loam soil and sand and treated with postemergence applications of test chemicals formulated in the same manner. Plants ranged in height from 2 to 10 cm and were in the one- to two-leaf stage for the postemergence treatment. […] A dash (-) response means no test result.

[2] = test system: ragweed; assay: Test A preemergence; assay type: in vivo, Ambrosia elatior; details: 0 to 100 scale (0 no effect, 100 complete control)
Description: (§2) Seeds of plant species selected from barnyardgrass (Echinochloa crus-galli), crabgrass, large (large crabgrass, Digitaria sanguinalis), kochia (Kochia scoparia), ragweed (common ragweed, Ambrosia elatior), foxtail, giant (giant foxtail, Setaria faberii), morningglory (Ipomoea spp.), pigweed (Amaranthus retroflexus), velvetleaf (Abutilon theophrasti), ryegrass, Italian (Italian ryegrass, Lolium multiflorum), wheat (Triticum aestivum), and corn (Zea mays) were planted into a blend of loam soil and sand and treated preemergence with a directed soil spray using test chemicals formulated in a non-phytotoxic solvent mixture which included a surfactant.
(§3) At the same time, plants selected from these crop and weed species and also blackgrass (Alopecurus myosuroides), and galium (catchweed bedstraw, Galium aparine), were planted in pots containing the same blend of loam soil and sand and treated with postemergence applications of test chemicals formulated in the same manner. Plants ranged in height from 2 to 10 cm and were in the one- to two-leaf stage for the postemergence treatment. Treated plants and untreated controls were maintained in a greenhouse for approximately 10 d, after which time all treated plants were compared to untreated controls and visually evaluated for injury. Plant response ratings, summarized in Table A, are based on a 0 to 100 scale where 0 is no effect and 100 is complete control. A dash (-) response means no test result.

[3] = test system: corn; assay: Test A postemergence; assay type: in vivo, Zea mays; details: 0 to 100 scale (0 no effect, 100 complete control), approx. 10 d
Description: as §1

[4] = test system: galium; assay: Test A postemergence; assay type: in vivo, Galium aparine; details: 0 to 100 scale (0 no effect, 100 complete control), approx. 10 d
Description: as §2, §3

[5] = test system: blackgrass; assay: Test A postemergence; assay type: in vivo, Alopecurus myosuroides; details: 0 to 100 scale (0 no effect, 100 complete control), approx. 10 d
Description: as §2, §3

[6] = test system: barnyardgrass; assay: Test A postemergence; assay type: in vivo, Echinochloa crus-galli; details: 0 to 100 scale (0 no effect, 100 complete control), approx. 10 d
Description: as §1

[7] = test system: pigweed; assay: Test A postemergence; assay type: in vivo, Amaranthus retroflexus; details: 0 to 100 scale (0 no effect, 100 complete control), approx. 10 d
Description: as §1

[8] = test system: ryegrass, Italian; assay: Test A preemergence; assay type: in vivo, Lolium multiflorum; details: 0 to 100 scale (0 no effect, 100 complete control)
Description: as §2, §3

[9] = test system: pigweed; assay: Test A preemergence; assay type: in vivo, Amaranthus retroflexus; details: 0 to 100 scale (0 no effect, 100 complete control)
Description: as §1

[10] = test system: barnyardgrass; assay: Test A preemergence; assay type: in vivo, Echinochloa crus-galli; details: 0 to 100 scale (0 no effect, 100 complete control)
Description: as §1

[11] = test system: ragweed; assay: Test A postemergence; assay type: in vivo, Ambrosia elatior; details: 0 to 100 scale (0 no effect, 100 complete control), approx. 10 d
Description: as §2, §3

[12] = test system: wheat; assay: Test A postemergence; assay type: in vivo, Triticum aestivum; details: 0 to 100 scale (0 no effect, 100 complete control), approx. 10 d
Description: as §1

[13] = test system: kochia; assay: Test A preemergence; assay type: in vivo, Kochia scoparia; details: 0 to 100 scale (0 no effect, 100 complete control)
Description: as §2, §3

[14] = test system: foxtail, giant; assay: Test A preemergence; assay type: in vivo, Setaria faberii; details: 0 to 100 scale (0 no effect, 100 complete control)
Description: as §1

[15] = test system: kochia; assay: Test A postemergence; assay type: in vivo, Kochia scoparia; details: 0 to 100 scale (0 no effect, 100 complete control), approx. 10 d
Description: as §2, §3

[16] = test system: ryegrass, Italian; assay: Test A postemergence; assay type: in vivo, Lolium multiflorum; details: 0 to 100 scale (0 no effect, 100 complete control), approx. 10 d
Description: as §2, §3

Row | Structure (SMILES) | Plant response rating, Foxtail, Giant ([1]; 31 g ai/ha) | Plant response rating, Foxtail, Giant ([1]; 125 g ai/ha) | Plant response rating, Ragweed ([2]; 31 g ai/ha) | Plant response rating, Ragweed ([2]; 125 g ai/ha) | Plant response rating, Corn ([3]; 31 g ai/ha) | Plant response rating, Corn ([3]; 125 g ai/ha) | Plant response rating, Galium ([4]; 31 g ai/ha) | Plant response rating, Galium ([4]; 125 g ai/ha) | Plant response rating, Blackgrass ([5]; 31 g ai/ha) | Plant response rating, Blackgrass ([5]; 125 g ai/ha) | Plant response rating, Barnyardgrass ([6]; 31 g ai/ha) | Plant response rating, Barnyardgrass ([6]; 125 g ai/ha) | Plant response rating, Pigweed ([7]; 31 g ai/ha) | Plant response rating, Pigweed ([7]; 125 g ai/ha) | Plant response rating, Ryegrass, Italian ([8]; 31 g ai/ha) | Plant response rating, Ryegrass, Italian ([8]; 125 g ai/ha) | Plant response rating, Pigweed ([9]; 31 g ai/ha) | Plant response rating, Pigweed ([9]; 125 g ai/ha) | Plant response rating, Barnyardgrass ([10]; 31 g ai/ha) | Plant response rating, Barnyardgrass ([10]; 125 g ai/ha) | further results
1 | Cc1nc(-c2ccc(Br)cc2)nn1Cc1ccnc(C(F)(F)F)c1 [Compound 36] | 20 | 70 | 0 | 20 | 20 | 30 | 50 | 90 | 10 | 30 | 0 | 20 | 90 | 100 | 0 | 10 | 90 | 90 | 0 | 60 | Plant response rating, Ragweed ([11]; 31 g ai/ha): 0; Plant response rating, Ragweed ([11]; 125 g ai/ha): 30; Plant response rating, Wheat ([12]; 31 g ai/ha): 0; Plant response rating, Wheat ([12]; 125 g ai/ha): 10; Plant response rating, Kochia ([13]; 31 g ai/ha): 60; Plant response rating, Kochia ([13]; 125 g ai/ha): 90; Plant response rating, Foxtail, Giant ([14]; 31 g ai/ha): 20; Plant response rating, Foxtail, Giant ([14]; 125 g ai/ha): 90; Plant response rating, Kochia ([15]; 31 g ai/ha): 70; Plant response rating, Kochia ([15]; 125 g ai/ha): 90; Plant response rating, Ryegrass, Italian ([16]; 31 g ai/ha): 0; Plant response rating, Ryegrass, Italian ([16]; 125 g ai/ha): 0
2 | Cc1nc(-c2ccc(OC(F)(F)F)cc2)nn1Cc1ccnc(C(F)(F)F)c1 [Compound 37] | 0 | 0 | 0 | 0 | 10 | 20 | 0 | 20 | 0 | 20 | 0 | 0 | 20 | 80 | 0 | 0 | 10 | 20 | 0 | 0 | Plant response rating, Ragweed ([11]; 31 g ai/ha): 0; Plant response rating, Ragweed ([11]; 125 g ai/ha): 0; Plant response rating, Wheat ([12]; 31 g ai/ha): 0; Plant response rating, Wheat ([12]; 125 g ai/ha): 0; Plant response rating, Kochia ([13]; 31 g ai/ha): 0; Plant response rating, Kochia ([13]; 125 g ai/ha): 0; Plant response rating, Foxtail, Giant ([14]; 31 g ai/ha): 0; Plant response rating, Foxtail, Giant ([14]; 125 g ai/ha): 0; Plant response rating, Kochia ([15]; 31 g ai/ha): 20; Plant response rating, Kochia ([15]; 125 g ai/ha): 70; Plant response rating, Ryegrass, Italian ([16]; 31 g ai/ha): 0; Plant response rating, Ryegrass, Italian ([16]; 125 g ai/ha): 0
3 | CCc1nc(-c2ccncc2)nn1Cc1ccnc(C(F)(F)F)c1 [Compound 39] | 10 | 20 | 0 | 0 | 0 | 20 | 40 | 60 | 0 | 0 | 0 | 10 | 60 | 70 | 0 | 0 | 30 | 90 | 0 | 0 | Plant response rating, Ragweed ([11]; 31 g ai/ha): 20; Plant response rating, Ragweed ([11]; 125 g ai/ha): 30; Plant response rating, Wheat ([12]; 31 g ai/ha): 0; Plant response rating, Wheat ([12]; 125 g ai/ha): 0; Plant response rating, Kochia ([13]; 31 g ai/ha): 0; Plant response rating, Kochia ([13]; 125 g ai/ha): 0; Plant response rating, Foxtail, Giant ([14]; 31 g ai/ha): 0; Plant response rating, Foxtail, Giant ([14]; 125 g ai/ha): 30; Plant response rating, Kochia ([15]; 31 g ai/ha): 50; Plant response rating, Kochia ([15]; 125 g ai/ha): 70; Plant response rating, Ryegrass, Italian ([16]; 31 g ai/ha): 0; Plant response rating, Ryegrass, Italian ([16]; 125 g ai/ha): 0
4 | CCCOc1nc(-c2ccc(C(F)(F)F)cc2)nn1Cc1ccnc(C(F)(F)F)c1 [Compound 41] | 30 | 50 | 20 | 30 | 20 | 30 | 60 | 90 | 20 | 30 | 30 | 40 | 80 | 90 | 20 | 40 | 90 | 90 | 30 | 40 | Plant response rating, Ragweed ([11]; 31 g ai/ha): 50; Plant response rating, Ragweed ([11]; 125 g ai/ha): 70; Plant response rating, Wheat ([12]; 31 g ai/ha): 0; Plant response rating, Wheat ([12]; 125 g ai/ha): 20; Plant response rating, Kochia ([13]; 31 g ai/ha): 30; Plant response rating, Kochia ([13]; 125 g ai/ha): 60; Plant response rating, Foxtail, Giant ([14]; 31 g ai/ha): 70; Plant response rating, Foxtail, Giant ([14]; 125 g ai/ha): 90; Plant response rating, Kochia ([15]; 31 g ai/ha): 70; Plant response rating, Kochia ([15]; 125 g ai/ha): 90; Plant response rating, Ryegrass, Italian ([16]; 31 g ai/ha): 20; Plant response rating, Ryegrass, Italian ([16]; 125 g ai/ha): 30
